Data: patent US8198325B2, “Unsaturated alkyl esters of 5-aminolevulinic acid, their preparation and their use” (Industry Foundation of Chonnam National University, priority 2006, dated 2012)

How the values were obtained:
[1] = test system: Human epidermal keratinocyte (HEK); test: Cytotoxicity test (cell survival), MTT assay, HEK; format: cell-based; conditions: 24 hours; for MTT absorbance (OD): 570 nm; for Cell survival Avg (%) ± SD (%): Table 3
Procedure: (§1) 3. Cytotoxicity Test (Cell Survival Test)
(§2) Cytotoxicity was conducted through an MTT assay (Chemicon, Serologicals Corporation, USA) as follows.
(§3) Cells were seeded at a density of 3×10^4 cells/well in 96-well plates (Nunc Do, Denmark).
(§4) When the cells were at a confluence of about 60˜70%, 24 hours after seeding, the media was exchanged for 100 μl of fresh, serum-free media containing various respective concentrations of ALA or ALA-ester, after which the cells were incubated for an additional 24 hours.
(§5) An MTT solution (0.5 mg/mL) was added in an amount of […] to each well, followed by incubation for 4 hours to form formazan crystals. A color-developing solution (isopropanol with 0.04 N HCl) was added in an amount of […] per well to solubilize the formazan crystals.
(§6) The plates were measured for absorbance at 570 nm using an ELISA reader (EMAX, Molecular Device, USA).
(1) Human Epidermal Keratinocyte (HEK)
Cell survival of the human epidermal keratinocytes treated with ALA esters of the present invention and with ALA was compared. The results are summarized in Tables 1 and 2, which are represented in different manners depending on the measurements.

[2] = test system: Human dermal fibroblast (hF); test: Cytotoxicity test (cell survival), MTT assay, hF; format: cell-based; conditions: 24 hours
Procedure: as §1, §2, §3, §4, §5, §6
(2) Human Dermal Fibroblast (hF)

[3] = test system: Squamous cell carcinoma (A431); test: Cytotoxicity test (cell survival), MTT assay, A431; format: cell-based; conditions: 24 hours
Procedure: as §1, §2, §3, §4, §5, §6
(3) Squamous Cell Carcinoma (A431)

[4] = test system: Malignant melanoma (TMX 13); test: Cytotoxicity test (cell survival), MTT assay, TXM 13; format: cell-based; conditions: 24 hours
Procedure: as §1, §2, §3, §4, §5, §6
(4) Malignant Melanoma (TMX 13)

[5] = test system: all of the cells except for HEK (hF, A431, TXM 13); test: Cytotoxicity test (MTT), summary for all of the cells except for HEK; format: cell-based; conditions: text summary of the tables
Procedure: as §1, §2, §3, §4, §5, §6

[6] = test system: human epithelium keratocyte (HEK), human dermal fibroblast (hF), squamous cell carcinoma (A431), malignant melanoma (TXM13); test: Fluorescence spectroscopy of PpIX synthesis in all cell lines (FIG. 2); format: cell-based; conditions: range from 0.01 to 1 mM, 4 hours incubation
Procedure: 4. Fluorescence Spectroscopy
The synthesis of PpIX, induced by ALA and unsaturated alkyl esters of ALA in cells and skin tissues, was quantified using fluorescence spectroscopy.
The intensity of PpIX was measured on a fluorescence spectrophotometer (Uvikon, model 943) with excitation at 408 nm.
Each cell line was plated at a density of 2×10^5 cells in a 10 cm^2-dish (Falcon), and when the cells reached a confluent state of 70˜80%, serum-free media containing various concentrations (0.001˜1 mM) of ALA or ALA esters was added to the cells, followed by incubation for 4 hours.
After being washed once with PBS, the cells were detached with a 50% methanol solution containing 1M […] (HClO4) and scraped off using a Costar cell scraper.
The cells thus harvested were incubated for 5 min and centrifuged.
The fluorescence of the supernatant thus obtained was determined using a spectrofluorometer with excitation at 405 nm and emission at 605 nm.
The results are graphed in FIGS. 1 and 2.

[7] = test system: human epidermal keratinocyte (HEK), human dermal fibroblast (hF), squamous cell carcinoma (A431), malignant melanoma (TXM 13); test: Fluorescence microscopy of PpIX in cell lines (FIG. 5); format: cell-based; conditions: normal and cancer cell lines, fluorescence microscope
Procedure: 5. Observation Under Fluorescence Microscope
Each cell line and ICR mouse skin tissue were treated with the ALA esters of the present invention, and the regions where PpxIX was expressed were observed under a fluorescence microscope.
The normal cell lines, human epidermal keratinocytes (HEK) and human dermal fibroblasts (hF) and the cancer cell lines squamous cell carcinoma A431 and malignant melanoma TXM13 were treated with […] of the ALA esters of the present invention or ALA, followed by monitoring the fluorescence of the synthesized PpIX under a fluorescence microscope.

Each cell line = test: Apoptosis and cell death by Annexin V-FITC/PI flow cytometry after visible light (FIG. 8); format: cell-based
Procedure: 6. Research into Apoptosis and Cell Death A. Cell Line Each cell line cultured in 6-well plates was treated with ALA or ALA esters of the present invention, irradiated with visible light from an LED, and stained with Annexin V-FITC and PI (Annexin V-FITC Apoptosis detection Kit, BD) before the measurement of apoptosis using flow cytometry (FACSCalibur, BD, USA).

[8] = test system: skin of ICR mice (epidermis, sebaceous gland); test: Cell death in skin tissue after ointment and LED irradiation, H&E (FIGS. 9, 10); format: in vivo
Procedure: Ointments comprising ALA or the ALA esters of the present invention at various concentrations (5˜15%) were applied in a predetermined amount ([…]) to the back of shaved ICR mice.
1 and 4 hours after the application, the back was irradiated with LED visible light (dose 25 J/cm^2).
24, 48 and 72 hours after the irradiation, skin samples were taken from the back of the mice, stained with hematoxylin-eosin (H&E) and observed for cell death.

SMILES: NCC(=O)CCC(=O)O [ALA, 5-Aminolevulinic acid]
- MTT absorbance (OD) ([1]; 0.01 mM): 3.428 OD
- Cell survival Avg (%) ± SD (%) ([1]; 0.01 mM): 131.83 ± 0.9%
- MTT absorbance (OD) ([1]; 0.05 mM): 3.318 OD
- Cell survival Avg (%) ± SD (%) ([1]; 0.05 mM): 112.32 ± 0.7%
- MTT absorbance (OD) ([1]; 0.1 mM): 3.457 OD
- Cell survival Avg (%) ± SD (%) ([1]; 0.1 mM): 132.21 ± 0.35%
- MTT absorbance (OD) ([1]; 0.5 mM): 3.285 OD
- Cell survival Avg (%) ± SD (%) ([1]; 0.5 mM): 103.43 ± 0.15%
- MTT absorbance (OD) ([1]; 1 mM): 2.802 OD
- Cell survival Avg (%) ± SD (%) ([1]; 1 mM): 100.94 ± 6.16%
- MTT absorbance (OD) ([1]; 2 mM): 2.179 OD
- Cell survival Avg (%) ± SD (%) ([1]; 2 mM): 84.9 ± 5.12%
- MTT absorbance (OD) ([1]; 5 mM): 1.659 OD
- activity at 10 µM ([1]; Homo sapiens, HEK001, 0.01 mM, Table 2, read-out: Cell survival (% of control C, in brackets)): 97.6%
- activity at 2000 µM ([1]; Homo sapiens, HEK2, 2 mM, Table 2, read-out: Cell survival (% of control C, in brackets)): 62.1%
- activity at 50 µM ([1]; Homo sapiens, Keratinocyte, 0.05 mM, Table 2, read-out: Cell survival (% of control C, in brackets)): 94.5%
- activity at 100 µM ([1]; Homo sapiens, Keratinocyte, 0.1 mM, Table 2, read-out: Cell survival (% of control C, in brackets)): 98.5%
- activity at 500 µM ([1]; Homo sapiens, Keratinocyte, 0.5 mM, Table 2, read-out: Cell survival (% of control C, in brackets)): 92.8%
- activity at 1000 µM ([1]; Homo sapiens, Keratinocyte, 1 mM, Table 2, read-out: Cell survival (% of control C, in brackets)): 79.7%
- activity at 5000 µM ([1]; Homo sapiens, Keratinocyte, 5 mM, Table 2, read-out: Cell survival (% of control C, in brackets)): 47.2%
- Cell survival Avg (%) ± SD (%) ([2]; 0.01 mM): 109.74 ± 11.55%
- Cell survival Avg (%) ± SD (%) ([2]; 0.05 mM): 125.18 ± 14.08%
- Cell survival Avg (%) ± SD (%) ([2]; 0.1 mM): 125.27 ± 16.1%
- Cell survival Avg (%) ± SD (%) ([2]; 0.5 mM): 95.218 ± 9.47%
- Cell survival Avg (%) ± SD (%) ([2]; 1 mM): 99.89 ± 18.3%
- Cell survival Avg (%) ± SD (%) ([2]; 2 mM): 97.66 ± 9.45%
- Cell survival Avg (%) ± SD (%) ([3]; A431, 0.01 mM): 102.99 ± 0.71%
- Cell survival Avg (%) ± SD (%) ([3]; A431, 0.05 mM): 104.98 ± 0.35%
- Cell survival Avg (%) ± SD (%) ([3]; A431, 0.1 mM): 106.79 ± 0.15%
- Cell survival Avg (%) ± SD (%) ([3]; A431, 0.5 mM): 81.6 ± 6.16%
- Cell survival Avg (%) ± SD (%) ([3]; A431, 1 mM): 84.17 ± 5.12%
- Cell survival Avg (%) ± SD (%) ([3]; A431, 2 mM): 82.63 ± 2.44%
- Cell survival Avg ± SD (%) ([4]; TXM 13, 0.01 mM): 100 ± 10.22%
- Cell survival Avg ± SD (%) ([4]; TXM 13, 0.05 mM): 93.12 ± 5.82%
- Cell survival Avg ± SD (%) ([4]; TXM 13, 0.1 mM): 86.66 ± 6.95%
- Cell survival Avg ± SD (%) ([4]; TXM 13, 0.5 mM): 83.75 ± 9.57%
- Cell survival Avg ± SD (%) ([4]; TXM 13, 1 mM): 89.91 ± 6.33%
- Cell survival Avg ± SD (%) ([4]; TXM 13, 2 mM): 93.6 ± 5.13%
- Cell survival [5]: ≥ 70%
- PpIX synthesis, dose dependence [6]: increase in a dose-dependent manner
- PpIX fluorescence in cytoplasm [7]: can induce the synthesis of PpIX in both normal and cancer cell lines
- Photo-induced apoptosis (Annexin V/PI) (Each cell line; 1 mM, then irradiation 5-20 J/cm^2, FIGS. 8C and D): induced the cells to undergo apoptosis (Annexin V+/PI−) or the late stage of apoptosis (Annexin V+/PI+)
- Cell survival (flow cytometry) (Each cell line; treated but with no irradiation with visible light, FIGS. 8A and B): ≥ 85%
- Epidermis histology (H&E) after irradiation ([8]; 24 hours after visible light 25 J/cm^2, FIG. 9A): apoptosis or necrosis of the epidermis
- Sebaceous gland morphology after irradiation ([8]; 24 hours after visible light 25 J/cm^2, FIG. 10): destroyed partially or wholly
